Experimental findings from ChEMBL document CHEMBL1147551, “Synthesis and inhibition of Src kinase activity by 7-ethenyl and 7-ethynyl-4-anilino-3-quinolinecarbonitriles” (Bioorg Med Chem Lett, 2004) are described below.

Experiment [1] deals with Proto-oncogene tyrosine-protein kinase Src (Homo sapiens, UniProt P12931). As to the kind of experiment: Enzyme inhibitory activity against recombinant human Src protein tyrosine kinase.
The species named for experiment [2] is Rattus norvegicus. Put plainly: Inhibitory activity against Src-dependent cell proliferation assay using rat fibroblasts.
The species entered for experiment [3] is Rattus norvegicus. Put plainly: Inhibitory activity against Src-dependent cell proliferation assay, using rat fibroblasts. The experiment is classed as functional.

A value given as a limit tells only on which side of the number the result lay.

Sequence of Proto-oncogene tyrosine-protein kinase Src (P12931 2-536 limits assumed): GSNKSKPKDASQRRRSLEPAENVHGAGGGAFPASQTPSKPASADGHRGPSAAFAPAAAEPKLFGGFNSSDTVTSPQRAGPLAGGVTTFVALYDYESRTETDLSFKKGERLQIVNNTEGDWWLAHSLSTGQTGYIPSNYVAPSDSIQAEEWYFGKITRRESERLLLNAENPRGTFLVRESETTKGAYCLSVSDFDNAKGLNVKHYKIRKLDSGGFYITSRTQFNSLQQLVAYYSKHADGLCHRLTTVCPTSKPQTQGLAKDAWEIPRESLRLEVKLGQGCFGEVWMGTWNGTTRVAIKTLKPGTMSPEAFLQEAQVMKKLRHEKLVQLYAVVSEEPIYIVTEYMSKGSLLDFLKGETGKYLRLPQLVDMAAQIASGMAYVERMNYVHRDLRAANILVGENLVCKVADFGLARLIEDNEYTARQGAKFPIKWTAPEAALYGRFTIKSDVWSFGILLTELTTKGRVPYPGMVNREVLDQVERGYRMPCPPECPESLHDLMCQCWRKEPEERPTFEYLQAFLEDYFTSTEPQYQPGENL

As for `COc1cc(Nc2c(C#N)cnc3cc(/C=C/c4ccccc4)c(OC)cc23)c(Cl)cc1Cl`, the IC50 in experiment [1] came to 65 nM; in the experiment filed under Rattus norvegicus [2], 1500 nM.

Take `COc1cc(Nc2c(C#N)cnc3cc(C#Cc4ccncc4)ccc23)c(Cl)cc1Cl`: the figures for the IC50 (in experiment [1]; in the experiment listed under Rattus norvegicus [2]) were 83 nM and 2700 nM, respectively.

For the compound `COc1cc(Nc2c(C#N)cnc3cc(/C=C/c4ccc(-c5ccccc5)cc4)ccc23)c(Cl)cc1Cl`, the IC50 in experiment [1] is 2300 nM; in the experiment filed under Rattus norvegicus [2] it was greater than 10000 nM.

With `COc1cc(Nc2c(C#N)cnc3cc(/C=C/c4ccncc4)c(OC)cc23)c(Cl)cc1Cl`, in the experiment listed under Rattus norvegicus [2], the 50% inhibitory concentration (IC50) stood at 80 nM.

For the compound `COc1cc(Nc2c(C#N)cnc3cc(C#Cc4ccc(-c5ccccc5)cc4)ccc23)c(Cl)cc1Cl`, the figures for the 50% inhibitory concentration (IC50) (in experiment [1]; in the experiment filed under Rattus norvegicus [2]) were 420 nM and greater than 10000 nM, respectively.

In the case of `N#Cc1cnc2cc(/C=C/c3ccncc3)ccc2c1Nc1ccc(Cl)cc1Cl`, in the experiment filed under Rattus norvegicus [2], half-maximal inhibition (IC50) required 1200 nM.

Consider `CCOc1cc(Nc2c(C#N)cnc3cc(/C=C/c4ccncc4)ccc23)c(Cl)cc1Cl`, for which the half-inhibitory concentration (IC50) in experiment [1] is 3100 nM; in the experiment filed under Rattus norvegicus [2], greater than 10000 nM.

For the compound `COc1cc(Nc2c(C#N)cnc3cc(C#Cc4ccccc4)c(OC)cc23)c(Cl)cc1Cl`, the IC50 in experiment [1] was determined as 57 nM; in the experiment listed under Rattus norvegicus [2], 3000 nM.

Take `COc1cc(Nc2c(C#N)cnc3cc(C#Cc4ccccn4)ccc23)c(Cl)cc1Cl`: the IC50 in experiment [1] was 530 nM; in the experiment listed under Rattus norvegicus [2], greater than 10000 nM.

With `COc1cc(Nc2c(C#N)cnc3cc(C#Cc4cccnc4)c(OC)cc23)c(Cl)cc1Cl`, in the experiment filed under Rattus norvegicus [2], the IC50 was 270 nM.

In the case of `COc1cc(Nc2c(C#N)cnc3cc(/C=C/c4cccnc4)ccc23)c(Cl)cc1Cl`, the results for the IC50 (in experiment [1]; in the experiment filed under Rattus norvegicus [2]) were 15 nM and 230 nM, respectively.

Compound `COc1cc(Nc2c(C#N)cnc3cc(C#Cc4cccnc4)ccc23)c(Cl)cc1Cl` gave an IC50 in the experiment filed under Rattus norvegicus [2] of 650 nM.

On to `COc1cc(Nc2c(C#N)cnc3cc(CCc4ccncc4)ccc23)c(Cl)cc1Cl`, for which the half-inhibitory concentration (IC50) in the experiment listed under Rattus norvegicus [2] was greater than 10000 nM.

Compound `COc1cc(Nc2c(C#N)cnc3cc(/C=C/c4ccccn4)ccc23)c(Cl)cc1Cl` yielded an Inhibition in the experiment filed under Rattus norvegicus [3] of 50%. The IC50 in experiment [1] turned out to be 19 nM.

As for `COc1cc(Nc2c(C#N)cnc3cc(/C=C/c4cccnc4)c(OC)cc23)c(Cl)cc1Cl`, the values for the half-inhibitory concentration (IC50) (in experiment [1]; in the experiment listed under Rattus norvegicus [2]) were 8.4 nM and 140 nM, respectively.

For `COc1cc(Nc2c(C#N)cnc3cc(/C=C/c4ccc5ccccc5c4)ccc23)c(Cl)cc1Cl`, the IC50 in experiment [1] is 320 nM; in the experiment filed under Rattus norvegicus [2] it was greater than 10000 nM.

Regarding `COc1cc(Nc2c(C#N)cnc3cc(/C=C/c4ccccc4)ccc23)c(Cl)cc1Cl`, the values for the concentration for half-maximal inhibition (IC50) (in experiment [1]; in the experiment filed under Rattus norvegicus [2]) were 180 nM and 2700 nM, respectively.

As for `N#Cc1cnc2cc(/C=C/c3ccncc3)ccc2c1Oc1ccc(Cl)cc1Cl`, the IC50 stood at 380 nM in experiment [1] and 7200 nM in the experiment listed under Rattus norvegicus [2].

On to `COc1cc(Nc2c(C#N)cnc3cc(C#Cc4ccccc4)ccc23)c(Cl)cc1Cl`, for which the figures for the half-maximal inhibitory concentration (IC50) (in experiment [1]; in the experiment filed under Rattus norvegicus [2]) were 320 nM and greater than 10000 nM, respectively.

In turn, `COc1cc(Nc2c(C#N)cnc3cc(/C=C/c4ccncc4)ccc23)c(Cl)cc1Cl` returned a concentration for half-maximal inhibition (IC50) in the experiment listed under Rattus norvegicus [2] of 230 nM.

As to `N#Cc1cnc2cc(/C=C/c3ccncc3)ccc2c1NCc1ccc(Cl)cc1Cl`, the figures for the 50% inhibitory concentration (IC50) (in experiment [1]; in the experiment listed under Rattus norvegicus [2]) were 1000 nM and greater than 10000 nM, respectively.

Take `N#Cc1cnc2cc(C#Cc3cccnc3)ccc2c1Nc1ccc(Cl)cc1Cl`: the values for the IC50 (in experiment [1]; in the experiment filed under Rattus norvegicus [2]) were 200 nM and 3900 nM, respectively.

Regarding `O=C(O)c1cnc2cc(/C=C/c3ccncc3)ccc2c1Nc1ccc(Cl)cc1Cl`, the concentration for half-maximal inhibition (IC50) is 1600 nM in experiment [1] and greater than 10000 nM in the experiment filed under Rattus norvegicus [2].

For `CCOC(=O)c1cnc2cc(/C=C/c3ccncc3)ccc2c1Nc1ccc(Cl)cc1Cl`, the values for the IC50 (in experiment [1]; in the experiment filed under Rattus norvegicus [2]) were 12000 nM and greater than 10000 nM, respectively.

On to `C=Cc1ccc2c(Nc3cc(OC)c(Cl)cc3Cl)c(C#N)cnc2c1`, for which the concentration for half-maximal inhibition (IC50) in experiment [1] was 97 nM; in the experiment listed under Rattus norvegicus [2], 9300 nM.
